Results taken from PubChem BioAssay (NCI).
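Five concentrations, 48 hours, 96-well plates. TGI marks complete inhibition of growth.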

Columns and labels:
Test in all cases: NCI anticancer screen, dose series, 48 h
SK-MEL-2 melanoma = tested on: SK-MEL-2 melanoma
A549 NSCLC = tested on: A549 NSCLC
SK-OV-3 ovarian = tested on: SK-OV-3 ovarian
MDA-N = tested on: MDA-N
CCRF-CEM leukemia = tested on: CCRF-CEM leukemia
NCI-H522 lung = tested on: NCI-H522 lung
OVCAR-5 ovarian = tested on: OVCAR-5 ovarian
ACHN renal = tested on: ACHN renal
K-562 leukemia = tested on: K-562 leukemia
IGROV1 ovarian = tested on: IGROV1 ovarian
HT29 colon = tested on: HT29 colon
U251 CNS = tested on: U251 CNS
UACC-62 melanoma = tested on: UACC-62 melanoma
HCT-116 colon = tested on: HCT-116 colon
TK-10 renal = tested on: TK-10 renal
EKVX NSCLC = tested on: EKVX NSCLC
MCF7 breast = tested on: MCF7 breast
SK-MEL-5 melanoma = tested on: SK-MEL-5 melanoma
NCI-H23 lung = tested on: NCI-H23 lung
M14 melanoma = tested on: M14 melanoma
UACC-257 melanoma = tested on: UACC-257 melanoma
DU-145 prostate = tested on: DU-145 prostate
CAKI-1 renal = tested on: CAKI-1 renal
SW-620 colon = tested on: SW-620 colon
HCC-2998 colon = tested on: HCC-2998 colon
KM12 colon = tested on: KM12 colon
HCT-15 colon = tested on: HCT-15 colon
MOLT-4 leukemia = tested on: MOLT-4 leukemia
OVCAR-4 ovarian = tested on: OVCAR-4 ovarian
A498 renal = tested on: A498 renal
T-47D breast = tested on: T-47D breast
NCI-H226 lung = tested on: NCI-H226 lung
HS 578T breast = tested on: HS 578T breast
786-0 renal = tested on: 786-0 renal
NCI/ADR-RES ovarian = tested on: NCI/ADR-RES ovarian
SR leukemia = tested on: SR leukemia
SK-MEL-28 melanoma = tested on: SK-MEL-28 melanoma
PC-3 prostate = tested on: PC-3 prostate
MDA-MB-435 = tested on: MDA-MB-435
RXF 393 renal = tested on: RXF 393 renal
MALME-3M melanoma = tested on: MALME-3M melanoma
NCI-H460 lung = tested on: NCI-H460 lung
SF-295 CNS = tested on: SF-295 CNS
HOP-62 NSCLC = tested on: HOP-62 NSCLC
SF-268 CNS = tested on: SF-268 CNS
HOP-92 NSCLC = tested on: HOP-92 NSCLC
MDA-MB-231 breast = tested on: MDA-MB-231 breast
SN12C renal = tested on: SN12C renal
LOX IMVI melanoma = tested on: LOX IMVI melanoma
BT-549 breast = tested on: BT-549 breast
RPMI-8226 leukemia = tested on: RPMI-8226 leukemia
HL-60(TB) leukemia = tested on: HL-60(TB) leukemia
UO-31 renal = tested on: UO-31 renal
COLO 205 colon = tested on: COLO 205 colon
SNB-19 CNS = tested on: SNB-19 CNS
OVCAR-8 ovarian = tested on: OVCAR-8 ovarian
SF-539 CNS = tested on: SF-539 CNS
SNB-75 CNS = tested on: SNB-75 CNS
OVCAR-3 ovarian = tested on: OVCAR-3 ovarian

## O=C(Nc1ccccc1)N1CC(CN2CCN(c3ccccc3)CC2)OC1=O (centres undefined)
SK-MEL-2 melanoma
  TGI: > 100 µM
A549 NSCLC
  TGI: > 100 µM
SK-OV-3 ovarian
  TGI: > 100 µM
MDA-N
  TGI: > 100 µM
CCRF-CEM leukemia
  TGI: > 100 µM
NCI-H522 lung
  TGI: > 100 µM
OVCAR-5 ovarian
  TGI: > 100 µM
ACHN renal
  TGI: > 100 µM
K-562 leukemia
  TGI: > 100 µM
IGROV1 ovarian
  TGI: > 100 µM
HT29 colon
  TGI: > 100 µM
U251 CNS
  TGI: > 100 µM
UACC-62 melanoma
  TGI: > 100 µM
HCT-116 colon
  TGI: > 100 µM
TK-10 renal
  TGI: > 100 µM
EKVX NSCLC
  TGI: > 100 µM
MCF7 breast
  TGI: > 100 µM
SK-MEL-5 melanoma
  TGI: > 100 µM
NCI-H23 lung
  TGI: > 100 µM
M14 melanoma
  TGI: > 100 µM
UACC-257 melanoma
  TGI: > 100 µM
DU-145 prostate
  TGI: > 100 µM
CAKI-1 renal
  TGI: > 100 µM
SW-620 colon
  TGI: > 100 µM
HCC-2998 colon
  TGI: > 100 µM
KM12 colon
  TGI: > 100 µM
HCT-15 colon
  TGI: > 100 µM
MOLT-4 leukemia
  TGI: > 100 µM
OVCAR-4 ovarian
  TGI: > 100 µM
A498 renal
  TGI: > 100 µM
T-47D breast
  TGI: > 100 µM
NCI-H226 lung
  TGI: > 100 µM
HS 578T breast
  TGI: > 100 µM
786-0 renal
  TGI: > 100 µM
NCI/ADR-RES ovarian
  TGI: > 100 µM
SR leukemia
  TGI: > 100 µM
SK-MEL-28 melanoma
  TGI: > 100 µM
PC-3 prostate
  TGI: > 100 µM
MDA-MB-435
  TGI: > 100 µM
RXF 393 renal
  TGI: > 100 µM
MALME-3M melanoma
  TGI: > 100 µM
NCI-H460 lung
  TGI: > 100 µM
SF-295 CNS
  TGI: > 100 µM
HOP-62 NSCLC
  TGI: > 100 µM
SF-268 CNS
  TGI: > 100 µM
HOP-92 NSCLC
  TGI: > 100 µM
MDA-MB-231 breast
  TGI: > 100 µM
SN12C renal
  TGI: > 100 µM
LOX IMVI melanoma
  TGI: > 100 µM
BT-549 breast
  TGI: > 100 µM
RPMI-8226 leukemia
  TGI: > 100 µM
HL-60(TB) leukemia
  TGI: > 100 µM
UO-31 renal
  TGI: > 100 µM
COLO 205 colon
  TGI: > 100 µM
SNB-19 CNS
  TGI: > 100 µM

## CN(C)c1ccc2c(SCC(=O)OCC(=O)[C@@]3(O)CC[C@H]4[C@@H]5CCC6=CC(=O)C=C[C@]6(C)[C@H]5C(=O)C[C@@]43C)c3ccc(N(C)C)cc3nc2c1
SK-MEL-2 melanoma
  TGI: > 100 µM
A549 NSCLC
  TGI: > 100 µM
SK-OV-3 ovarian
  TGI: > 100 µM
MDA-N
  TGI: > 100 µM
OVCAR-8 ovarian
  TGI: 37 µM
NCI-H522 lung
  TGI: > 100 µM
OVCAR-5 ovarian
  TGI: > 100 µM
ACHN renal
  TGI: 20 µM
K-562 leukemia
  TGI: > 70.4 µM
IGROV1 ovarian
  TGI: > 100 µM
HT29 colon
  TGI: 25.4 µM
SF-539 CNS
  TGI: > 56.3 µM
U251 CNS
  TGI: > 100 µM
UACC-62 melanoma
  TGI: 54.6 µM
HCT-116 colon
  TGI: > 100 µM
TK-10 renal
  TGI: 48.8 µM
EKVX NSCLC
  TGI: > 81.2 µM
MCF7 breast
  TGI: > 100 µM
SK-MEL-5 melanoma
  TGI: > 100 µM
NCI-H23 lung
  TGI: 64.9 µM
M14 melanoma
  TGI: > 100 µM
UACC-257 melanoma
  TGI: > 77.5 µM
DU-145 prostate
  TGI: 58.2 µM
CAKI-1 renal
  TGI: 60.8 µM
SW-620 colon
  TGI: > 100 µM
HCC-2998 colon
  TGI: > 100 µM
KM12 colon
  TGI: > 100 µM
HCT-15 colon
  TGI: 32.1 µM
MOLT-4 leukemia
  TGI: > 100 µM
OVCAR-4 ovarian
  TGI: > 72.1 µM
A498 renal
  TGI: > 96.2 µM
T-47D breast
  TGI: > 100 µM
NCI-H226 lung
  TGI: 47.5 µM
HS 578T breast
  TGI: > 100 µM
786-0 renal
  TGI: > 47.4 µM
SNB-75 CNS
  TGI: > 89.7 µM
SR leukemia
  TGI: 4 µM
SK-MEL-28 melanoma
  TGI: > 76.1 µM
PC-3 prostate
  TGI: > 100 µM
MDA-MB-435
  TGI: > 72.1 µM
RXF 393 renal
  TGI: > 57 µM
MALME-3M melanoma
  TGI: > 100 µM
NCI-H460 lung
  TGI: > 45.7 µM
SF-295 CNS
  TGI: > 100 µM
HOP-62 NSCLC
  TGI: > 100 µM
SF-268 CNS
  TGI: > 100 µM
OVCAR-3 ovarian
  TGI: > 100 µM
HOP-92 NSCLC
  TGI: > 64.6 µM
MDA-MB-231 breast
  TGI: > 93.8 µM
SN12C renal
  TGI: > 59.3 µM
LOX IMVI melanoma
  TGI: > 100 µM
BT-549 breast
  TGI: > 49.5 µM
RPMI-8226 leukemia
  TGI: 82.5 µM
HL-60(TB) leukemia
  TGI: > 20.5 µM
UO-31 renal
  TGI: 24.8 µM
COLO 205 colon
  TGI: > 100 µM
SNB-19 CNS
  TGI: > 94.5 µM

## COC(=O)c1ccccc1C1CN=NC12Cc1c(C)c3c(c(C)c1C2=O)CCC3 (centres undefined)
SK-MEL-2 melanoma
  TGI: > 100 µM
A549 NSCLC
  TGI: > 100 µM
SK-OV-3 ovarian
  TGI: > 100 µM
MDA-N
  TGI: > 100 µM
OVCAR-8 ovarian
  TGI: > 100 µM
CCRF-CEM leukemia
  TGI: > 100 µM
NCI-H522 lung
  TGI: > 100 µM
OVCAR-5 ovarian
  TGI: > 100 µM
ACHN renal
  TGI: > 100 µM
K-562 leukemia
  TGI: > 100 µM
IGROV1 ovarian
  TGI: > 100 µM
HT29 colon
  TGI: > 100 µM
SF-539 CNS
  TGI: > 100 µM
U251 CNS
  TGI: > 100 µM
UACC-62 melanoma
  TGI: > 100 µM
HCT-116 colon
  TGI: > 100 µM
TK-10 renal
  TGI: 90.8 µM
EKVX NSCLC
  TGI: > 100 µM
MCF7 breast
  TGI: > 100 µM
SK-MEL-5 melanoma
  TGI: > 100 µM
NCI-H23 lung
  TGI: > 100 µM
M14 melanoma
  TGI: > 100 µM
UACC-257 melanoma
  TGI: > 100 µM
DU-145 prostate
  TGI: > 100 µM
CAKI-1 renal
  TGI: > 100 µM
SW-620 colon
  TGI: > 100 µM
HCC-2998 colon
  TGI: > 100 µM
KM12 colon
  TGI: > 100 µM
HCT-15 colon
  TGI: > 100 µM
MOLT-4 leukemia
  TGI: > 100 µM
OVCAR-4 ovarian
  TGI: > 100 µM
A498 renal
  TGI: > 100 µM
T-47D breast
  TGI: > 100 µM
NCI-H226 lung
  TGI: > 100 µM
HS 578T breast
  TGI: > 100 µM
786-0 renal
  TGI: > 100 µM
NCI/ADR-RES ovarian
  TGI: > 100 µM
SNB-75 CNS
  TGI: > 100 µM
SK-MEL-28 melanoma
  TGI: > 100 µM
PC-3 prostate
  TGI: > 100 µM
MDA-MB-435
  TGI: > 100 µM
RXF 393 renal
  TGI: > 100 µM
MALME-3M melanoma
  TGI: > 100 µM
NCI-H460 lung
  TGI: > 100 µM
SF-295 CNS
  TGI: > 100 µM
HOP-62 NSCLC
  TGI: > 100 µM
SF-268 CNS
  TGI: > 100 µM
OVCAR-3 ovarian
  TGI: > 100 µM
HOP-92 NSCLC
  TGI: > 100 µM
MDA-MB-231 breast
  TGI: > 100 µM
SN12C renal
  TGI: > 100 µM
LOX IMVI melanoma
  TGI: > 100 µM
BT-549 breast
  TGI: > 100 µM
HL-60(TB) leukemia
  TGI: > 100 µM
UO-31 renal
  TGI: > 100 µM
COLO 205 colon
  TGI: > 100 µM
SNB-19 CNS
  TGI: > 100 µM
